Measured values taken from patent publication US11298356B1, “Amorphous solid dispersions of dasatinib and uses thereof” (NANOCOPOEIA, LLC, priority 2020, dated 2022).
In brackets after ≈: the same amount, converted by molar mass.

Key:
[1] = Aqueous solubility of dasatinib (internal experimentation); assay type: physicochemical; details: aqueous medium
Excerpt: Dasatinib in crystalline forms is categorized as a Biopharmaceutical Classification System (“BCS”) Class II (low solubility/high permeability) compound. […] A preparation of dasatinib in a form that is intended to enhance its solubility could increase its bioavailability. One approach for enhancing solubility is to produce an amorphous solid dispersion.

[2] = crystalline forms; low solubility/high permeability; cited from earlier work
[3] = Comparative Example; promptly after spray drying and drying
Method: (§1) Each of the resulting ASDs was placed on stability under accelerated conditions at 40° C./75% RH. The ASDs were assessed at t=0 (i.e., after the secondary drying step), 2 weeks, 1 month, 2 months, 3 months, and 6 months for appearance, amorphicity, glass transition temperature, water content, and assay/total impurities.
Amorphicity (i.e., the lack of crystallinity) for the ASDs was assessed by XRD. Diffraction patterns were obtained using a Rigaku MiniFlex 600. The X-ray source was a long anode Cu Kα. Samples were prepared by placing a small amount of ASD powder on a Rigaku zero-background sample holder with a 0.1 mm indent. A glass slide was then used to firmly pack the powder and ensure the surface of the sample was level with the edge of the sample holder.
Rigaku Data Analysis Software PDXL 2.4.2.0 was used to determine crystallinity. Briefly, a linear background was obtained by connecting the beginning and end of each diffractogram. Peaks were then fitted to split pseudo-Voigt shape by the Lorentzian function. Generally, narrow peaks with full width at half maximum (FWHM) less than 1° were assigned as crystalline phase. If no crystalline phase was detected, the sample was deemed to be amorphous.

[4] = Comparative Example; promptly after preparation
Method: as §1
In general, about 5-10 mg of ASD powder was loaded in a TA Tzero low-mass aluminum pan and sealed with a Tzero lid.

| SMILES | solubility ([1]; pH 2, simulated gastric fluid) | solubility ([1]; pH 6.2, aqueous buffer) | Biopharmaceutical Classification System (BCS) class [2] | XRD crystallinity [3] | glass transition temperature (Tg) [4] |
| --- | --- | --- | --- | --- | --- |
| Cc1nc(Nc2ncc(C(=O)Nc3c(C)cccc3Cl)s2)cc(N2CCN(CCO)CC2)n1 [Dasatinib, N-(2-chloro-6-methylphenyl)-2-[[6-[4-(2-hydroxyethyl)-1-piperazinyl]-2-methyl-4-pyrimidinyl]amino]-5-thiazolecarboxamide] | ~1400 µg/mL (≈ 2870 µM) | < 1 µg/mL | Class II |  |  |
| Cc1nc(Nc2ncc(C(=O)Nc3c(C)cccc3Cl)s2)cc(N2CCN(CCO)CC2)n1 [spray-dried material of 100% dasatinib] |  |  |  | exhibited crystalline character | 125.61 °C |
